From ChEMBL document CHEMBL1121410, “Structure--taste relationship of perillartine and nitro- and cyanoaniline derivatives” (J Med Chem, 1980)

How the values were obtained:
Homo sapiens [1] = species on record: Homo sapiens; experiment: Activity expressed by taste potency (taste intensity relative to sucrose on a mole/mole basis); type: functional
Homo sapiens [2] = species on record: Homo sapiens; experiment: Taste quality; type: functional
[3] = Evaluated for taste quality, NS means not sweet
[4] = Evaluated for taste quality,
[5] = The activity was expressed by the logarithm of the taste potency as measure of taste intensity relative to that of sucrose on a mole/mole basis; I means insoluble
[6] = The activity was expressed by the logarithm of the taste potency as measure of taste intensity relative to that of sucrose on a mole/mole basis; NI means not isolated
[7] = The activity was expressed by the logarithm of the taste potency as measure of taste intensity relative to that of sucrose on a mole/mole basis;T = tasteless

For `COC(C)C1=CCC(/C=N/O)=CC1` (centres undefined), the “Log A” value (Homo sapiens [1]) was 2.48 and the Log sweet/bitter (Homo sapiens [2]) was 1.96.

With `COC(C)C1=CCC=C(/C=N/O)C1` (centres undefined) the Log sweet/bitter [3] was “Not sweet” and the “Log A” value (Homo sapiens [1]) was 1.96.

For `C=C(C)/C=N/O`, the “Log A” value (Homo sapiens [1]) was 0.9.

With `CC(C)(O)C1CC=C(/C=N/O)CC1` (centres undefined) the “Log A” value (Homo sapiens [1]) was 0.9 and the Log sweet/bitter [4] was -0.66.

In the case of `COc1ccc(C#N)cc1N`, the “Log A” value (Homo sapiens [1]) is reported as 1.89.

With `CC(O)(CO)C1CC=C(/C=N/O)CC1` (centres undefined) the “Log A” value (Homo sapiens [1]) was 1.48 and the Log sweet/bitter (Homo sapiens [2]) was -1.15.

With `COCC(C)(OC)C1CC=C(/C=N/O)CC1` (centres undefined) the “Log A” value (Homo sapiens [1]) was 1.7.

With `CC1CC=C(/C=N/O)C(C)O1` (centres undefined) the Log sweet/bitter [3] was “Not sweet” and the “Log A” value (Homo sapiens [1]) was 1.

In the case of `Nc1cc([N+](=O)[O-])ccc1Br`, the “Log A” value (Homo sapiens [1]) is reported as 2.71.

For `O/N=C/C1=CCCCC1`, the “Log A” value (Homo sapiens [1]) was 1.74.

For `COCC1CCC=C1/C=N/O` (centres undefined), the “Log A” value (Homo sapiens [1]) was 1.52 and the Log sweet/bitter (Homo sapiens [2]) was -0.12.

With `COCC1=CCC=C(/C=N/O)C1` the Log sweet/bitter [3] was “Not sweet” and the “Log A” value (Homo sapiens [1]) was 2.15.

For `CC(C)Oc1ccc([N+](=O)[O-])cc1N`, the “Log A” value (Homo sapiens [1]) was 2.54.

With `CC(=O)C1CC=C(/C=N/O)CC1` (centres undefined) the “Log A” value (Homo sapiens [1]) was 1.08 and the Log sweet/bitter (Homo sapiens [2]) was 0.22.

With `COCC1CC=C(/C=N/O)CC1` (centres undefined) the “Log A” value (Homo sapiens [1]) was 1.72 and the Log sweet/bitter (Homo sapiens [2]) was 0.38.

In the case of `O/N=C/C1=CCCC1`, the “Log A” value (Homo sapiens [1]) is reported as 1.74.

With `COC(C)(CO)C1CC=C(/C=N/O)CC1` (centres undefined) the “Log A” value (Homo sapiens [1]) was 1.04 and the Log sweet/bitter (Homo sapiens [2]) was -1.4.

For `COCCCC/C=C(C)/C=N/O`, the “Log A” value (Homo sapiens [1]) was 1.23.

With `COCC1CC=C(/C=N/O)C1` (centres undefined) the “Log A” value (Homo sapiens [1]) was 1.38 and the Log sweet/bitter (Homo sapiens [2]) was 0.64.

In the case of `CCCc1ccc([N+](=O)[O-])cc1N`, the “Log A” value (Homo sapiens [1]) is reported as 3.02.

For `N#Cc1cccc(N)c1`, the “Log A” value (Homo sapiens [1]) was 0.94.

For `O/N=C/C1=CCOCC1`, the “Log A” value (Homo sapiens [1]) was 0.18.

For `CCOc1ccc(C#N)cc1N`, the “Log A” value (Homo sapiens [1]) was 2.63.

With `Cc1ccc([N+](=O)[O-])cc1N` the “Log A” value (Homo sapiens [1]) was 2.17.

In the case of `COC(C)C1=CC=C(/C=N/O)CC1` (centres undefined), the “Log A” value (Homo sapiens [1]) is reported as 2.13 and the Log sweet/bitter (Homo sapiens [2]) is reported as 0.97.

With `O/N=C/C1=CCSCC1` the “Log A” value (Homo sapiens [1]) was 1.3.

For `COC(C)C1CCC=C(/C=N/O)C1` (centres undefined), the “Log A” value (Homo sapiens [1]) was 1.45 and the Log sweet/bitter (Homo sapiens [2]) was -1.4.

For `Nc1cc([N+](=O)[O-])ccc1F`, the “Log A” value (Homo sapiens [1]) was 1.26.

With `CC(C)(OCC(=O)O)C1CC=C(/C=N/O)CC1` (centres undefined) [listing 1 of 2 here] the “Log A” value (Homo sapiens [1]) was 1.98 and the Log sweet/bitter (Homo sapiens [2]) was 0.15.

For `O/N=C/C1=COCCC1`, the “Log A” value (Homo sapiens [1]) was 0.48.

For `COCC(C)(O)C1CC=C(/C=N/O)CC1` (centres undefined), the “Log A” value (Homo sapiens [1]) was 0.6 and the Log sweet/bitter (Homo sapiens [2]) was -1.05.

For `O/N=C/C1=CC=CCC1`, the “Log A” value (Homo sapiens [1]) was 1.95.

In the case of `N#Cc1ccc(Cl)c(N)c1`, the “Log A” value (Homo sapiens [1]) is reported as 2.13.

With `C=C(C)C1CC=C(/C=N/O)CC1` (centres undefined) the “Log A” value (Homo sapiens [1]) was 2.57 and the Log sweet/bitter (Homo sapiens [2]) was 0.38.

With `COCCOCC1CC=C(/C=N/O)CC1` (centres undefined) the “Log A” value [5] was “Insoluble”.

With `COCC1=CC=C(/C=N/O)CC1` the “Log A” value [6] was “Not isolated”.

For `N#Cc1ccc(Br)c(N)c1`, the “Log A” value (Homo sapiens [1]) was 2.46.

For `C/C(=N\O)C1=CCCCC1`, the Log sweet/bitter [3] was “Not sweet” and the “Log A” value (Homo sapiens [1]) was 2.61.

With `Nc1cc([N+](=O)[O-])ccc1I` the “Log A” value (Homo sapiens [1]) was 2.98.

For `CCCOc1ccc([N+](=O)[O-])cc1N`, the “Log A” value (Homo sapiens [1]) was 3.46.

In the case of `CCCOc1ccc(C#N)cc1N`, the “Log A” value (Homo sapiens [1]) is reported as 3.11.

With `C/C=C(C)/C(C)=N/O` the “Log A” value (Homo sapiens [1]) was 2.15.

For `CC1(C2CC=C(/C=N/O)CC2)CO1` (centres undefined), the “Log A” value (Homo sapiens [1]) was 1.7.

With `CC(C)C1=CCC(/C=N/O)=CC1` the “Log A” value (Homo sapiens [1]) was 2.51 and the Log sweet/bitter (Homo sapiens [2]) was -0.07.

For `O/N=C/C1=CC2C=CC1CC2` (centres undefined), the Log sweet/bitter [3] was “Not sweet” and the “Log A” value (Homo sapiens [1]) was 2.51.

In the case of `COc1ccc([N+](=O)[O-])cc1N`, the “Log A” value (Homo sapiens [1]) is reported as 2.21.

With `CC1CC=C(/C=N/O)CC1` (centres undefined) the “Log A” value (Homo sapiens [1]) was 2.4 and the Log sweet/bitter (Homo sapiens [2]) was -0.1.

With `CC1=CCC(/C=N/O)=CC1` the “Log A” value (Homo sapiens [1]) was 2.7 and the Log sweet/bitter (Homo sapiens [2]) was 1.42.

For `Nc1cc([N+](=O)[O-])ccc1Cl`, the “Log A” value (Homo sapiens [1]) was 2.31.

For `COC1CC=C(/C=N/O)CC1` (centres undefined), the “Log A” value (Homo sapiens [1]) was 0.9 and the Log sweet/bitter (Homo sapiens [2]) was 0.21.

For `Nc1cc([N+](=O)[O-])ccc1O` [2-AMINO-4-NITROPHENOL], the “Log A” value (Homo sapiens [1]) was 1.96.

For `CC1=CC=C(/C=N/O)CC1`, the “Log A” value (Homo sapiens [1]) was 2.18 and the Log sweet/bitter (Homo sapiens [2]) was 0.23.

For `COCC(OC)C1CC=C(/C=N/O)CC1` (centres undefined), the Log sweet/bitter [3] was “Not sweet” and the “Log A” value (Homo sapiens [1]) was 0.9.

In the case of `CC(C)(OCC(=O)O)C1CC=C(/C=N/O)CC1` (centres undefined) [listing 2 of 2 here], the Log sweet/bitter [3] is reported as “Not sweet”.

With `CC(C)(OCC(=O)[O-])C1CC=C(/C=N/O)CC1.[Na+]` (centres undefined) the “Log A” value (Homo sapiens [1]) was 1.

With `Nc1cccc([N+](=O)[O-])c1` [3-NITROANILINE] the “Log A” value (Homo sapiens [1]) was 1.21.

For `CO/N=C(/C)C1CC=C(/C=N/O)CC1` (centres undefined), the “Log A” value (Homo sapiens [1]) was 1.9.

For `COCCC1CC=C(/C=N/O)CC1` (centres undefined), the “Log A” value [7] was “Tasteless”.

With `CCOc1ccc([N+](=O)[O-])cc1N` the “Log A” value (Homo sapiens [1]) was 2.87.

In the case of `COC(C)C1CC=C(/C=N/O)CC1` (centres undefined), the “Log A” value (Homo sapiens [1]) is reported as 1.9 and the Log sweet/bitter (Homo sapiens [2]) is reported as 0.4.

With `COCC1=CCC(/C=N/O)=CC1` the “Log A” value (Homo sapiens [1]) was 2.35 and the Log sweet/bitter (Homo sapiens [2]) was 1.65.

With `C/C=C(C)/C=N/O` the “Log A” value (Homo sapiens [1]) was 1.6.

With `C=CC1C=C(/C=N/O)CCC1` (centres undefined) the “Log A” value (Homo sapiens [1]) was 2.24 and the Log sweet/bitter (Homo sapiens [2]) was -0.39.

For `C=CC1CC=C(/C=N/O)CC1` (centres undefined), the “Log A” value (Homo sapiens [1]) was 3.06 and the Log sweet/bitter (Homo sapiens [2]) was 0.7.

In the case of `CCCCOc1ccc([N+](=O)[O-])cc1N`, the “Log A” value (Homo sapiens [1]) is reported as 2.79.

For `COCC/C=C(C)/C=N/O`, the “Log A” value (Homo sapiens [1]) was 0.6.

With `C=COc1ccc([N+](=O)[O-])cc1N` the “Log A” value (Homo sapiens [1]) was 3.06.

With `O/N=C/C1=CCC=CC1` the “Log A” value (Homo sapiens [1]) was 2.3.

With `O/N=C/C1=CCCOC1` the “Log A” value (Homo sapiens [1]) was 0.3.

For `CCOC1CC=C(/C=N/O)CC1` (centres undefined), the “Log A” value (Homo sapiens [1]) was 1.2 and the Log sweet/bitter (Homo sapiens [2]) was 0.21.
